Results published in the supplement of paper PMC10883282.

Tests used:
Test in all cases: relative viability vs DMSO control (72 h) (fraction); higher = more viable cells
SW872 = system: SW872
Method in brief: (§1)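 ATPLite readings, expressed as percent growth and averaged over up to triplicate wells, provided relative viability. Before reading, sarcoma cell lines seeded in 384-well plates to reach 80–90% confluence received 2.5 µl of serially diluted compound after 24 h, from source plates of 10 mM to 0.0002 mM. Plates were held 72 h at 37 °C, 5% CO2, with 0.1% DMSO as vehicle and a 5 µM positive control. The data were rescaled to 1 for full and 0 for none.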

SW684 = system: SW684
Method in brief: as §1

HT1080 = system: HT1080
Method in brief: as §1

A204 = system: A204
Method in brief: as §1

SK-LMS-1 = system: SK-LMS-1
Method in brief: as §1

RD-ES = system: RD-ES
Method in brief: as §1

SK-ES-1 = system: SK-ES-1
Method in brief: as §1

SW982 = system: SW982
Method in brief: as §1

VA-ES-BJ = system: VA-ES-BJ
Method in brief: as §1

G401 = system: G401
Method in brief: as §1

HS729 = system: HS729
Method in brief: as §1

KHOS-NP = system: KHOS-NP
Method in brief: as §1

O=c1sn(-c2cccc3ccccc23)c(=O)n1Cc1ccccc1 [Tideglusib]
Settings	relative viability
A204, 0.00017 µM	1.09
A204, 0.00051 µM	1.131
A204, 0.00152 µM	1.12
A204, 0.00457 µM	1.12
A204, 0.01372 µM	1.14
A204, 0.04115 µM	1.11
A204, 0.1235 µM	1.12
A204, 0.3704 µM	1.12
A204, 1.111 µM	1.134
A204, 3.333 µM	1.1
A204, 10 µM	1.07
G401, 0.00017 µM	1.08
G401, 0.00051 µM	1.12
G401, 0.00152 µM	1.08
G401, 0.00457 µM	1.1
G401, 0.01372 µM	1.08
G401, 0.04115 µM	1.07
G401, 0.1235 µM	1.05
G401, 0.3704 µM	1.04
G401, 1.111 µM	0.984
G401, 3.333 µM	0.9812
G401, 10 µM	0.918
HS729, 0.00017 µM	1.1
HS729, 0.00051 µM	1.07
HS729, 0.00152 µM	1.07
HS729, 0.00457 µM	1.04
HS729, 0.01372 µM	1.03
HS729, 0.04115 µM	1
HS729, 0.1235 µM	0.972
HS729, 0.3704 µM	0.956
HS729, 1.111 µM	0.908
HS729, 3.333 µM	0.933
HS729, 10 µM	0.861
HT1080, 0.00017 µM	1.06
HT1080, 0.00051 µM	1.08
HT1080, 0.00152 µM	1.07
HT1080, 0.00457 µM	1.1
HT1080, 0.01372 µM	1.069
HT1080, 0.04115 µM	1.07
HT1080, 0.1235 µM	1.06
HT1080, 0.3704 µM	1.09
HT1080, 1.111 µM	1.07
HT1080, 3.333 µM	1.097
HT1080, 10 µM	1.02
KHOS-NP, 0.00017 µM	1.11
KHOS-NP, 0.00051 µM	1.112
KHOS-NP, 0.00152 µM	1.1
KHOS-NP, 0.00457 µM	1.114
KHOS-NP, 0.01372 µM	1.12
KHOS-NP, 0.04115 µM	1.113
KHOS-NP, 0.1235 µM	1.108
KHOS-NP, 0.3704 µM	1.1
KHOS-NP, 1.111 µM	1.075
KHOS-NP, 3.333 µM	1.08
KHOS-NP, 10 µM	1.07
RD-ES, 0.00017 µM	1.01
RD-ES, 0.00051 µM	1.03
RD-ES, 0.00152 µM	1.02
RD-ES, 0.00457 µM	1.02
RD-ES, 0.01372 µM	1.02
RD-ES, 0.04115 µM	1.01
RD-ES, 0.1235 µM	1.03
RD-ES, 0.3704 µM	1.01
RD-ES, 1.111 µM	1.01
RD-ES, 3.333 µM	1
RD-ES, 10 µM	0.992
SK-ES-1, 0.00017 µM	1.03
SK-ES-1, 0.00051 µM	1.06
SK-ES-1, 0.00152 µM	1.09
SK-ES-1, 0.00457 µM	1.12
SK-ES-1, 0.01372 µM	1.083
SK-ES-1, 0.04115 µM	1.08
SK-ES-1, 0.1235 µM	1.05
SK-ES-1, 0.3704 µM	1.03
SK-ES-1, 1.111 µM	1.03
SK-ES-1, 3.333 µM	0.977
SK-ES-1, 10 µM	0.923
SK-LMS-1, 0.00017 µM	1.02
SK-LMS-1, 0.00051 µM	1.01
SK-LMS-1, 0.00152 µM	1.02
SK-LMS-1, 0.00457 µM	1.01
SK-LMS-1, 0.01372 µM	0.994
SK-LMS-1, 0.04115 µM	1.02
SK-LMS-1, 0.1235 µM	1.02
SK-LMS-1, 0.3704 µM	0.993
SK-LMS-1, 1.111 µM	1
SK-LMS-1, 3.333 µM	1.01
SK-LMS-1, 10 µM	0.986
SW684, 0.00017 µM	1.17
SW684, 0.00051 µM	1.19
SW684, 0.00152 µM	1.21
SW684, 0.00457 µM	1.14
SW684, 0.01372 µM	1.16
SW684, 0.04115 µM	1.14
SW684, 0.1235 µM	1.17
SW684, 0.3704 µM	1.11
SW684, 1.111 µM	1.16
SW684, 3.333 µM	1.09
SW684, 10 µM	1.1
SW872, 0.00017 µM	1.1
SW872, 0.00051 µM	1.09
SW872, 0.00152 µM	1.09
SW872, 0.00457 µM	1.09
SW872, 0.01372 µM	1.09
SW872, 0.04115 µM	1.1
SW872, 0.1235 µM	1.08
SW872, 0.3704 µM	1.05
SW872, 1.111 µM	1.07
SW872, 3.333 µM	1.07
SW872, 10 µM	1.03
SW982, 0.00017 µM	1.07
SW982, 0.00051 µM	1.09
SW982, 0.00152 µM	1.08
SW982, 0.00457 µM	1.11
SW982, 0.01372 µM	1.11
SW982, 0.04115 µM	1.11
SW982, 0.1235 µM	1.1
SW982, 0.3704 µM	1.09
SW982, 1.111 µM	1.068
SW982, 3.333 µM	1.08
SW982, 10 µM	1.05
VA-ES-BJ, 0.00017 µM	1.1
VA-ES-BJ, 0.00051 µM	1.12
VA-ES-BJ, 0.00152 µM	1.08
VA-ES-BJ, 0.00457 µM	1.1
VA-ES-BJ, 0.01372 µM	1.08
VA-ES-BJ, 0.04115 µM	1.08
VA-ES-BJ, 0.1235 µM	1.08
VA-ES-BJ, 0.3704 µM	1.04
VA-ES-BJ, 1.111 µM	1.07
VA-ES-BJ, 3.333 µM	1.04
VA-ES-BJ, 10 µM	1.02

Cc1cc2cc(Oc3ccnc(Nc4cccc(CS(=O)(=O)NCCN(C)C)c4)n3)ccc2[nH]1 [Sulfatinib]
Settings	relative viability
A204, 0.00017 µM	1.09
A204, 0.00051 µM	1.08
A204, 0.00152 µM	1.08
A204, 0.00457 µM	1.05
A204, 0.01372 µM	1.07
A204, 0.04115 µM	1.02
A204, 0.1235 µM	1.01
A204, 0.3704 µM	0.878
A204, 1.111 µM	0.536
A204, 3.333 µM	0.283
A204, 10 µM	0.136
G401, 0.00017 µM	1.024
G401, 0.00051 µM	0.976
G401, 0.00152 µM	1.01
G401, 0.00457 µM	0.995
G401, 0.01372 µM	1.04
G401, 0.04115 µM	0.993
G401, 0.1235 µM	0.983
G401, 0.3704 µM	1.02
G401, 1.111 µM	0.969
G401, 3.333 µM	0.536
G401, 10 µM	0.157
HS729, 0.00017 µM	0.983
HS729, 0.00051 µM	0.993
HS729, 0.00152 µM	0.979
HS729, 0.00457 µM	0.9
HS729, 0.01372 µM	0.939
HS729, 0.04115 µM	0.872
HS729, 0.1235 µM	0.877
HS729, 0.3704 µM	0.843
HS729, 1.111 µM	0.768
HS729, 3.333 µM	0.629
HS729, 10 µM	0.49
HT1080, 0.00017 µM	1.023
HT1080, 0.00051 µM	0.983
HT1080, 0.00152 µM	0.997
HT1080, 0.00457 µM	1.03
HT1080, 0.01372 µM	1.03
HT1080, 0.04115 µM	1.03
HT1080, 0.1235 µM	1.01
HT1080, 0.3704 µM	1.044
HT1080, 1.111 µM	0.969
HT1080, 3.333 µM	1.05
HT1080, 10 µM	0.878
KHOS-NP, 0.00017 µM	1.05
KHOS-NP, 0.00051 µM	1.05
KHOS-NP, 0.00152 µM	1.03
KHOS-NP, 0.00457 µM	1.006
KHOS-NP, 0.01372 µM	1.03
KHOS-NP, 0.04115 µM	1.019
KHOS-NP, 0.1235 µM	1.04
KHOS-NP, 0.3704 µM	1.026
KHOS-NP, 1.111 µM	1.01
KHOS-NP, 3.333 µM	1.01
KHOS-NP, 10 µM	0.963
RD-ES, 0.00017 µM	1.02
RD-ES, 0.00051 µM	0.998
RD-ES, 0.00152 µM	1.01
RD-ES, 0.00457 µM	0.996
RD-ES, 0.01372 µM	1.023
RD-ES, 0.04115 µM	1
RD-ES, 0.1235 µM	1
RD-ES, 0.3704 µM	1.01
RD-ES, 1.111 µM	0.992
RD-ES, 3.333 µM	0.87
RD-ES, 10 µM	0.579
SK-ES-1, 0.00017 µM	1.03
SK-ES-1, 0.00051 µM	1.03
SK-ES-1, 0.00152 µM	1.01
SK-ES-1, 0.00457 µM	1.03
SK-ES-1, 0.01372 µM	1.03
SK-ES-1, 0.04115 µM	1.05
SK-ES-1, 0.1235 µM	1.03
SK-ES-1, 0.3704 µM	1.03
SK-ES-1, 1.111 µM	1
SK-ES-1, 3.333 µM	0.859
SK-ES-1, 10 µM	0.455
SK-LMS-1, 0.00017 µM	1
SK-LMS-1, 0.00051 µM	1.07
SK-LMS-1, 0.00152 µM	1.01
SK-LMS-1, 0.00457 µM	1.04
SK-LMS-1, 0.01372 µM	1.04
SK-LMS-1, 0.04115 µM	1.03
SK-LMS-1, 0.1235 µM	1.03
SK-LMS-1, 0.3704 µM	0.986
SK-LMS-1, 1.111 µM	1.01
SK-LMS-1, 3.333 µM	0.924
SK-LMS-1, 10 µM	0.531
SW684, 0.00017 µM	1.11
SW684, 0.00051 µM	1.09
SW684, 0.00152 µM	1.09
SW684, 0.00457 µM	1.12
SW684, 0.01372 µM	1.08
SW684, 0.04115 µM	1.07
SW684, 0.1235 µM	1.04
SW684, 0.3704 µM	1.1
SW684, 1.111 µM	1.05
SW684, 3.333 µM	0.995
SW684, 10 µM	0.555
SW872, 0.00017 µM	1.02
SW872, 0.00051 µM	1.05
SW872, 0.00152 µM	1.02
SW872, 0.00457 µM	1.02
SW872, 0.01372 µM	1
SW872, 0.04115 µM	0.996
SW872, 0.1235 µM	1.02
SW872, 0.3704 µM	1.02
SW872, 1.111 µM	0.973
SW872, 3.333 µM	0.88
SW872, 10 µM	0.526
SW982, 0.00017 µM	1.04
SW982, 0.00051 µM	1.04
SW982, 0.00152 µM	1.05
SW982, 0.00457 µM	1.06
SW982, 0.01372 µM	1.04
SW982, 0.04115 µM	1.03
SW982, 0.1235 µM	1.06
SW982, 0.3704 µM	1.02
SW982, 1.111 µM	0.971
SW982, 3.333 µM	0.719
SW982, 10 µM	0.226
VA-ES-BJ, 0.00017 µM	1.03
VA-ES-BJ, 0.00051 µM	1.03
VA-ES-BJ, 0.00152 µM	1.02
VA-ES-BJ, 0.00457 µM	1.03
VA-ES-BJ, 0.01372 µM	1.02
VA-ES-BJ, 0.04115 µM	1.02
VA-ES-BJ, 0.1235 µM	1
VA-ES-BJ, 0.3704 µM	1.04
VA-ES-BJ, 1.111 µM	1.08
VA-ES-BJ, 3.333 µM	1.04
VA-ES-BJ, 10 µM	0.486
